Calls of active or inactive are those of the source. No cut-off for these calls is given here.
How the values were obtained:
[1] = target: T1, Peroxisome proliferator-activated receptor delta (Homo sapiens) (UniProt Q03181); experiment: Agonist activity at PPARdelta in HEK293 cells assessed as transcriptional activation after 48 hrs by luciferase reporter gene assay; format: functional, cell-based
T1 sequence (whole entry): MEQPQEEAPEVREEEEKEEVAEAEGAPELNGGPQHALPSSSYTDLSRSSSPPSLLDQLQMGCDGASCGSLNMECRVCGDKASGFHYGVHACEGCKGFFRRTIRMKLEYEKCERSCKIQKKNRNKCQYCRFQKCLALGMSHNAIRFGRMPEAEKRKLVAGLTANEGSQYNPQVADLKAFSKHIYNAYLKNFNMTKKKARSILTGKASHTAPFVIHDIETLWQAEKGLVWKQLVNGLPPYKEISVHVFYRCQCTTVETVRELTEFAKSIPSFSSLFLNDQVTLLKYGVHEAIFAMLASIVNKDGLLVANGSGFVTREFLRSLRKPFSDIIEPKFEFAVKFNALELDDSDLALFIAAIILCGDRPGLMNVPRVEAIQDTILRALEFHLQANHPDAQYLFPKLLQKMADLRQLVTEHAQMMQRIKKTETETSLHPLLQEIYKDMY

[2] = test system: RAW264.7; experiment: Activation of RXR/LXR heterodimer in mouse RAW264.7 cells assessed as induction of ABCG1 mRNA expression by RT-PCR RXR antagonist HX531; format: functional, cell-based
[3] = target: T2, Retinoic acid receptor RXR-alpha (Mus musculus) (UniProt P28700); experiment: Agonist activity at RXRalpha in mouse peritoneal macrophages assessed as ApoAI-mediated cholesterol efflux after 24 hrs […]; format: functional
T2 sequence (whole entry): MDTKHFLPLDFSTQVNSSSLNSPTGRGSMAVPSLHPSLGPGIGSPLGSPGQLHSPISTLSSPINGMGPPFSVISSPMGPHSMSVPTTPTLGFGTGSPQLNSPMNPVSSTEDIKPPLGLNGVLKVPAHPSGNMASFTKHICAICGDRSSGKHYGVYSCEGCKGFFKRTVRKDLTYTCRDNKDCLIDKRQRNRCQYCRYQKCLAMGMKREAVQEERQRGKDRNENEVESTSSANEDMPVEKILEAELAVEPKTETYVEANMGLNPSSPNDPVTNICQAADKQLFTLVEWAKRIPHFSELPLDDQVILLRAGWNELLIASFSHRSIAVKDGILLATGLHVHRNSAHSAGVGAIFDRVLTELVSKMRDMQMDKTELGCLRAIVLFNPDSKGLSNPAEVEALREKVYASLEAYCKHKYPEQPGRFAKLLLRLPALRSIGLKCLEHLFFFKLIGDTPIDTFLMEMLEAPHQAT

[4] = target: T3, Retinoic acid receptor RXR-alpha (Homo sapiens) (UniProt P19793); experiment: Binding affinity to RXRalpha
T3 sequence (whole entry): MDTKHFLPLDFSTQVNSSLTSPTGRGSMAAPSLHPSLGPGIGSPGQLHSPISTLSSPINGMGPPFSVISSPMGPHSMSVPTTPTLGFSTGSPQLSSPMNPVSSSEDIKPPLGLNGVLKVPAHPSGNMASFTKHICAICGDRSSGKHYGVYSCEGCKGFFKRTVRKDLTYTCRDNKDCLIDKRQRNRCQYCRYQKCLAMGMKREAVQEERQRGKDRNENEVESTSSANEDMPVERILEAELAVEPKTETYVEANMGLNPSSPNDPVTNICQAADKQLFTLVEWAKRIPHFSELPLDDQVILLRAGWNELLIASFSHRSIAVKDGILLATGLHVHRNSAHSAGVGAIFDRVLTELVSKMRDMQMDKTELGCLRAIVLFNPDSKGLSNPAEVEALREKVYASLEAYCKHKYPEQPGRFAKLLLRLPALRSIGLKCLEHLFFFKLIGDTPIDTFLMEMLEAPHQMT

[5] = test system: RAW264.7; experiment: Activation of RXR/LXR heterodimer in mouse RAW264.7 cells assessed as induction of ABCG1 mRNA expression by RT-PCR in presence of RXR antagonist HX531; format: functional, cell-based
[6] = test system: RAW264.7; experiment: Activation of RXR/LXR heterodimer in mouse RAW264.7 cells assessed as induction of ABCG1 mRNA expression by RT-PCR; format: cell-based
[7] = target: T4, Oxysterols receptor LXR-alpha (Homo sapiens) (UniProt Q13133); experiment: Agonist activity at LXRalpha in HEK293 cells assessed as transcriptional activation after 48 hrs by luciferase reporter gene assay; format: functional, cell-based
T4 sequence (whole entry): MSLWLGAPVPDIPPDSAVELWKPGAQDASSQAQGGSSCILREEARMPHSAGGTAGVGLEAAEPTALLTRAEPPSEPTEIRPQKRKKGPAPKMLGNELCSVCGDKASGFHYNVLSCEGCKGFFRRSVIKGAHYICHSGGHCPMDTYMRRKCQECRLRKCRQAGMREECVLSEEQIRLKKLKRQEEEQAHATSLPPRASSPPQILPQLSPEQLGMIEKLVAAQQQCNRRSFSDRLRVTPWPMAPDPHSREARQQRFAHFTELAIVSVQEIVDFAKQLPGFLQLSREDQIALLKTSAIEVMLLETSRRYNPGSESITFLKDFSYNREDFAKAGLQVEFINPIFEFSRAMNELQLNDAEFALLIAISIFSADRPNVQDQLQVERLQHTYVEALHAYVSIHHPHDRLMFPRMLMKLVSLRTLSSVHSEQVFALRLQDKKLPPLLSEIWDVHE

[8] = target: T2, Retinoic acid receptor RXR-alpha (Mus musculus); experiment: Agonist activity at RXRalpha in mouse peritoneal macrophages assessed as ApoAI-mediated cholesterol efflux in presence of 22(R)-hydroxycholesterol after 24 hrs […]; format: functional
[9] = target: T5, Retinoic acid receptor RXR-alpha (Homo sapiens, UniProt P19793); experiment: Agonist activity at RXRalpha in HEK293 cells assessed as transcriptional activation after 48 hrs by luciferase reporter gene assay; format: functional, cell-based
T5 sequence (P19793 whole entry): T3 sequence (whole entry)

[10] = test system: RAW264.7; experiment: Activation of RXR/LXR heterodimer in mouse RAW264.7 cells assessed as induction of ABCA1 mRNA expression by RT-PCR; format: cell-based
[11] = target: T6, Peroxisome proliferator-activated receptor gamma (Homo sapiens) (UniProt P37231); experiment: Agonist activity at PPARgamma in HEK293 cells assessed as transcriptional activation after 48 hrs by luciferase reporter gene assay; format: functional, cell-based
T6 sequence (whole entry): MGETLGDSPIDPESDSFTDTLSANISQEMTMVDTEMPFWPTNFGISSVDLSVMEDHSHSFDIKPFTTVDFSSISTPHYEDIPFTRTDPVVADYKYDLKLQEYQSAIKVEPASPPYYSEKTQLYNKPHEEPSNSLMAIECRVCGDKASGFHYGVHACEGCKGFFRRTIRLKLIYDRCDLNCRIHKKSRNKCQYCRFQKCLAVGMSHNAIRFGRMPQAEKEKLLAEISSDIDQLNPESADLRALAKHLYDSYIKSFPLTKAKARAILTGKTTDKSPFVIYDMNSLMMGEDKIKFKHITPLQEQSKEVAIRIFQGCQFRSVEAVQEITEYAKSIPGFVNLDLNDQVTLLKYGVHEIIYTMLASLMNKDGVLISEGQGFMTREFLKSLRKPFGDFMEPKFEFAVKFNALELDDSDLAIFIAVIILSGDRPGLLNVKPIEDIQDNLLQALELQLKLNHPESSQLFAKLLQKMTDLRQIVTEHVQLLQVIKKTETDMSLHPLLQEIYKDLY

[12] = test system: RAW264.7; experiment: Activation of RXR/LXR heterodimer in mouse RAW264.7 cells assessed as induction of ABCG1 mRNA expression by RT-PCR in presence of 22(R)-hydroxycholesterol; format: cell-based

Q: `C=CCc1ccc(O)c(-c2ccc(O)c(CC=C)c2)c1` [HONOKIOL] was tested. Which Activity [1] did it give?
A: inactive

Q: What about the Activity [2] of the same molecule?
A: inactive

Q: What about the Activity [3] of the same molecule?
A: Active

Q: And the Activity [4]?
A: Active

Q: What about the Activity [5] of the same molecule?
A: inactive

Q: And the Activity [6]?
A: Active

Q: What about the Activity [7] of the same molecule?
A: inactive

Q: And the Activity [8]?
A: inactive

Q: And the EC50 [9]?
A: 11.8 µM

Q: What about the Activity [10] of the same molecule?
A: Dose-dependent effect

Q: And the Activity [11]?
A: inactive

Q: What about the Activity [12] of the same molecule?
A: Active

Q: For `CC/C=C\C/C=C\C/C=C\C/C=C\C/C=C\C/C=C\CCC(=O)O`, which Activity [4] is on record?
A: Active

Q: How did the Activity [3] turn out when `CC(C)CC[C@@H](O)[C@@H](C)[C@H]1CC[C@H]2[C@@H]3CC=C4C[C@@H](O)CC[C@]4(C)[C@H]3CC[C@]12C` was run?
A: Active

Q: What about the Activity [10] of the same molecule?
A: Dose-dependent effect

Q: With `C=C(c1ccc(C(=O)O)cc1)c1cc2c(cc1C)C(C)(C)CCC2(C)C` as the molecule, how does the Activity [3] read?
A: Active

Q: And the Activity [10]?
A: Dose-dependent effect

Q: With `CC(C)CCC[C@@H](C)CCC[C@@H](C)CCCC(C)CC(=O)O` (stereo partly drawn) as the molecule, how does the Activity [4] read?
A: Active
